Assays:
[1] = tested on: pCREB in mouse cortical neurons; assay: nuclear pCREB in midi-GAGR-treated mouse cortical neurons pre-treated with signaling inhibitors; type: cell-based; conditions: inhibitor 6 h (SU5402 4 μM, staurosporine 3 nM, U0126 10 μM, LY294002 20 μM, KN-62 10 μM, PF-573228 1 μM), then 1 μM midi-GAGR 48 h
Method: (§1) To analyze the effect of polysaccharides on neurite outgrowth, primary mouse cortical neurons were treated with vehicle (H2O) or 1 μM of dextran, alginate, or midi-GAGR, 0.01 μM of HA-GAGR, or 0.1 μM of LA-GAGR for 2 days prior to immunocytochemistry using anti-α-tubulin antibody and secondary Alexa488nm antibody. An etched grid coverslip containing 200 numbered boxes was used to select neurons objectively for image acquisition and analysis. A total of 24 boxes were randomly selected per treatment group. All the neurons having total neurite length longer than 4 times of the diameter of neuron cell body were chosen for image analysis. The total length of the neurites of each neuron was measured using Metamorph and used to calculate average total neurite length. To examine the effect of polysaccharides on the phosphorylation (activation) of nuclear CREB, neurons were stained with anti-pCREB antibody (Abcam & Santa Cruz biotechnologies, 2nd antibody with Alexa568nm), anti-α-tubulin antibody (Sigma, 2nd antibody with Alexa488nm), and DAPI (Sigma) after two-day incubation with vehicle (H2O) or 1 μM of dextran, alginate, or midi-GAGR, 0.01 μM of HA-GAGR, or 0.1 μM of LA-GAGR. […] The images of neurons on coverslips were taken by confocal microscopy at the same gain (850), offset (−0.01), and exposure time (2 sec). The intensity of the staining of nuclear pCREB was measured using Metamorph and used to calculate average intensity. In addition, the phosphorylation of CREB in the cytosols of mouse cortical neurons treated with polysaccharides were detected by immunoblotting. Primary mouse neurons were dissected from 16 mouse embryos (E17) and plated in the wells of 6-well plates (1×10^6 cells/well), differentiated for 6 days, and treated with polysaccharides for 48 h. Then, neurons were harvested and lysed in 1% Igepal CA-630 (Sigma)-containing PMEE buffer plus protease and phosphatase inhibitor cocktails (Sigma) for protein extraction. Extracted proteins were separated in 4-12% NuPAGE Bis-Tris protein gels (Life Technologies) and transferred to nitrocellulose membrane (GE Healthcare Life Science, Pittsburgh, Pa.) using a semidry blotter (Hoefer, Inc., San Francisco, Calif.). The protein bands on blots recognized by anti-pCREB (Santa Cruz Biotechnologies) and anti-CREB antibodies were detected on Amersham Hyperfilm™ ECL films (GE Healthcare Life Science) using SuperSignal® West Pico Chemiluminescent Substrate (Thermo Scientific).
Pharmacological agents were used to inhibit signaling molecules downstream of FGFR1 that mediate CREB phosphorylation. […] PF-573228 (PF, 1 μM) that inhibits FAK which sits at the bottleneck of the signaling pathway downstream of NCAM180 was also included to examine whether NCAM180 is involved in midi-GAGR-mediated CREB phosphorylation or not. […]

[2] = ABTS Antioxidant Assay Kit; type: biochemical; conditions: 10 μM
Method: The antioxidant capacity of midi-GAGR was measured using ABTS Antioxidant Assay Kit (Zenbio Co.). […] This was slightly stronger than antioxidant capacity of LA-GAGR (10 μM LA-GAGR=15.4 μM trolox) (Table 2).

[3] = tested on: mouse cortical neurons (E17, DIV5); assay: LIVE/DEAD assay, pre-treatment of mouse cortical neurons before 4HNE, H2O2 or Aβ42; type: cell-based
Text: (§2) The protective effect of polysaccharides on primary cortical neurons from 4HNE, H2O2, and Aβ42 peptide (Sigma) was examined using LIVE/DEAD® Viability/Cytotoxicity Assay Kit (Life Technologies). Female pregnant mice (BALB/C, E17, Charles River Laboratories International, Inc.) or female pregnant SD rats (E17, bred in house) were anesthetized and dissected to obtain 8-9 embryos per animal. Cortical neurons were isolated from embryonic brains and differentiated on poly-L-lysine-coated coverslips in B27/neurobasal medium. For drug treatment before free radical treatment, mouse cortical neurons (5 days in vitro [DIV5]) were treated with vehicle (H2O), 1 μM of 5 kD dextran (Sigma), alginate (Sigma), midi-GAGR, 0.01 μM of high acyl gellan gum (HA-GAGR, CPKelco Co.), or 0.1 μM of LA-GAGR for 24 h and then treated with 10 μM 4HNE or 50 μM H2O2 for 24 h, or 2 μM Aβ42 peptide for 48 h prior to viability/cytotoxicity assay. For drug co-treatment with free radicals, rat cortical neurons (DIV5) were treated with 1 μM of dextran, alginate, or midi-GAGR, 0.01 μM of HA-GAGR, or 0.1 μM of LA-GAGR along with either 10 μM 4HNE (24 h) or 2 μM Aβ42 peptide (48 h). To examine the extent to which midi-GAGR-mediated neuroprotection depends on FGFR1, rat cortical neurons (E17, DIV5) were pre-treated with 4 μM SU5402 (Sigma) for 6 h and treated with 10 μM 4HNE and either vehicle or 1 μM midi-GAGR for 24 h prior to cell viability/cytotoxicity assay. As controls, neurons were treated with SU5402, midi-GAGR, 4HNE, 4HNE plus midi-GAGR, or SU5402 plus midi-GAGR.
For cell viability/cytotoxicity measurement, neurons on glass coverslips were incubated in 1×PBS containing 2 μM calcein AM (live cells: green) and 4 μM ethidium homodimer-1 (dead cells: red) for 10 min at 37° C. Immediately thereafter, neurons were imaged by 10×objective using a fluorescence Olympus IX71 microscope (Olympus America Inc., Center Valley, Pa.) and, for the acquisition of high-quality images, using TCS SP5 multi-photon laser scanning confocal microscope.
Midi-GAGR attenuated neurite atrophy caused by free reactive radicals. It is now shown herein that midi-GAGR protect neurons from the death caused by free radical insults. The extent to which midi-GAGR protects the primary culture of rodent cortical neurons from 4HNE and H2O2 was determined. In addition to the radicals, amyloid β peptide (Aβ42) was also tested. Aβ42 peptide is a major causative factor that causes oxidative stress and neuron death. Mouse cortical neurons (E17, DIV5) were treated with 10 μM 4HNE (24 h), 50 μM H2O2 (24 h), or 2 μM Aβ42 peptide (48 h) after the treatment of the neurons with vehicle (H2O), midi-GAGR (1 μM), dextran (1 μM), alginate (1 μM), LA-GAGR (0.1 μM), or HA-GAGR (0.01 μM) for 24 h. The concentrations of 4HNE, H2O2, and Aβ42 peptide were chosen according to their patho-physiological concentrations. The concentrations of LA-GAGR and HA-GAGR were chosen because, within the same volume, the total numbers of sugar units in the polysaccharides at the concentrations are close to that of 1 μM midi-GAGR. The viability of neurons was assessed using LIVE/DEAD® Viability/Cytotoxicity Assay Kit in which membrane-permeant calcein AM is cleaved by esterase in live cells, thus yielding green fluorescence, and membrane-impermeant ethidium homodimer-1 stains the nucleic acids of plasma membrane-compromised cells with red fluorescence. The numbers of green (live) and red (dead) neurons in each condition were counted using Metamorph. Although the intensities of green fluorescent signals in neurons treated with either free radicals or Aβ42 peptide were weak, the neurons were included in the counting. About 8-9% of vehicle-treated neurons died during the process of live/dead cell assay (FIGS. 23A-23F, FIGS. 24A-24C).

[4] = tested on: pCREB in mouse cortical neurons; assay: pCREB immunoblotting of cytosols of mouse cortical neurons; type: cell-based; conditions: 48 h, same concentrations
Method: (§3) To analyze the effect of polysaccharides on neurite outgrowth, primary mouse cortical neurons were treated with vehicle (H2O) or 1 μM of dextran, alginate, or midi-GAGR, 0.01 μM of HA-GAGR, or 0.1 μM of LA-GAGR for 2 days prior to immunocytochemistry using anti-α-tubulin antibody and secondary Alexa488nm antibody. An etched grid coverslip containing 200 numbered boxes was used to select neurons objectively for image acquisition and analysis. A total of 24 boxes were randomly selected per treatment group. All the neurons having total neurite length longer than 4 times of the diameter of neuron cell body were chosen for image analysis. The total length of the neurites of each neuron was measured using Metamorph and used to calculate average total neurite length. […] The intensity of the staining of nuclear pCREB was measured using Metamorph and used to calculate average intensity. In addition, the phosphorylation of CREB in the cytosols of mouse cortical neurons treated with polysaccharides were detected by immunoblotting. […] The protein bands on blots recognized by anti-pCREB (Santa Cruz Biotechnologies) and anti-CREB antibodies were detected on Amersham Hyperfilm™ ECL films (GE Healthcare Life Science) using SuperSignal® West Pico Chemiluminescent Substrate (Thermo Scientific). […]

[5] = tested on: pCREB in mouse cortical neurons; assay: nuclear pCREB immunostaining in mouse cortical neurons (Example 4); type: cell-based; conditions: 48 h; midi-GAGR, alginate, dextran 1 μM; LA-GAGR 0.1 μM; HA-GAGR 0.01 μM
Method: as §3

[6] = tested on: primary mouse cortical neurons (E17, DIV4); assay: neurite outgrowth in primary mouse cortical neurons; type: cell-based; conditions: 2 days; midi-GAGR, dextran, alginate 1 μM; LA-GAGR 0.1 μM; HA-GAGR 0.01 μM
Method: as §1, with “Then, neurons were harvested and lysed in 1% Igepal CA-630 (Sigma)-containing PMEE buffer plus protease and phosphatase inhibitor cocktails (Sigma) for protein extraction. Extracted proteins were separated in 4-12% NuPAGE Bis-Tris protein gels (Life Technologies) and transferred to nitrocellulose membrane (GE Healthcare Life Science, Pittsburgh, Pa.) using a semidry blotter (Hoefer, Inc., San Francisco, Calif.).” left out

[7] = tested on: differentiated dopaminergic PC12 cells exposed to 30 μM 6-OHDA; assay: LIVE/DEAD viability of differentiated PC12 cells exposed to 6-OHDA; type: cell-based; conditions: 1 μM for 6 h, then 30 μM 6-OHDA for 24 h
Method: Differentiated dopaminergic PC12 cells and primary mouse embryonic cortical neurons (E17, DIV14) were treated with mock (H2O) or 1 μM of dextran, alginate, HA-GAGR, or midi-GAGR for 6 h and insulated by oxidative stressors (30 μM 6-OHDA [PC12] and 10 μM amyloid β peptide [cortical neurons]) for 24 h.

[8] = tested on: phosphorylated CREB in differentiated PC12 cells; assay: nuclear p-CREB immunostaining in differentiated PC12 cells; type: cell-based; conditions: 1 μM, 24 h
Method: (§4) Differentiated PC12 cells and mouse embryonic cortical neurons (E17, DIV14) were treated with mock, dextran, alginate, HA-GAGR, or midi-GAGR (1 μM) for 24 h and fixed in 3.7% paraformaldehyde. The fixed cells and neurons were immunostained with antibodies against α-tubulin and phosopho-CREB (p-CREB) along with DAPI (nucleus).

[9] = tested on: phosphorylated CREB in mouse embryonic cortical neurons; assay: nuclear p-CREB immunostaining in embryonic cortical neurons (Example 2); type: cell-based; conditions: 1 μM, 24 h
Method: as §4

[10] = tested on: rat cortical neurons (E17, DIV6); assay: FGFR1 dependence of neuroprotection against 4HNE, LIVE/DEAD assay; type: cell-based
Text: as §2, with “To examine the extent to which midi-GAGR-mediated neuroprotection depends on FGFR1, rat cortical neurons (E17, DIV5) were pre-treated with 4 μM SU5402 (Sigma) for 6 h and treated with 10 μM 4HNE and either vehicle or 1 μM midi-GAGR for 24 h prior to cell viability/cytotoxicity assay. As controls, neurons were treated with SU5402, midi-GAGR, 4HNE, 4HNE plus midi-GAGR, or SU5402 plus midi-GAGR.” left out

[11] = pre-treatment 24 h (midi-GAGR, alginate, dextran 1 μM; LA-GAGR 0.1 μM; HA-GAGR 0.01 μM), then 10 μM 4HNE 24 h
[12] = pre-treatment 24 h (same concentrations), then 2 μM Aβ42 peptide 48 h
[13] = pre-treatment 24 h (same concentrations), then 50 μM H2O2 24 h

Molecule | effect of inhibitor pre-treatment on average intensity of pCREB in midi-GAGR-treated neurons [1] | percent of neuron death [3, 11] | percent of neuron death [3, 12] | percent of neuron death [3, 13] | fold change in average total neurite length vs vehicle [6] | further results
CN([C@@H](Cc1ccc(OS(=O)(=O)c2cccc3cnccc23)cc1)C(=O)N1CCN(c2ccccc2)CC1)S(=O)(=O)c1cccc2cnccc12 [KN-62] | decreased slightly but still statistically significantly |  |  |  |  | 
[D-Glc(β1→4)D-GlcA(β1→4)D-Glc(β1→4)L-Rha(α1→3)]n [LA-GAGR] |  | 10% | ~10% | ~13% | ~1.6 fold | antioxidant capacity, ABTS assay [2]: 15.4 μM Trolox; levels of pCREB by immunoblotting vs control [4]: significantly increased; average intensity of nuclear pCREB vs vehicle [5]: ~2 fold
alginate |  | reduced | did not decrease | did not reduce | did not enhance neuritogenesis | 6-OHDA-induced cell death [7]: did not; increase in levels of nuclear p-CREB [8]: not significantly increased; increase in levels of nuclear p-CREB [9]: not significantly increased
CS(=O)(=O)c1cccc(CNc2nc(Nc3ccc4c(c3)CCC(=O)N4)ncc2C(F)(F)F)c1 [PF-573228] | did not decrease |  |  |  |  | 
N#CC(=C(/N)Sc1ccccc1N)/C(C#N)=C(\N)Sc1ccccc1N [U0126] | significantly decreased |  |  |  |  | 
Cc1c[nH]c(/C=C2\C(=O)Nc3ccccc32)c1CCC(=O)O [SU5402] | significantly decreased |  |  |  |  | percent of dead cells ([10]; SU5402 4 μM alone, no 4HNE): did not increase; percent of dead cells ([10]; SU5402 4 μM pre-treatment 6 h, then 10 μM 4HNE): ~80%

— patent US11197885B2, “Collagen enhancing agent made from low acyl gellan gum, methods of making and methods of using the same” (The University of Toledo, priority 2015, dated 2021)
